The source made the active and inactive calls. The rule behind the calls is not given here.
Test system: CCRIS mutagenicity, Ames/micronucleus/aberration tests
Experiment: CCRIS mutagenicity studies
[1] = Test System: AMES SALMONELLA TYPHIMURIUM, Strain/Indicator: TA98, Metabolic Activation: NONE, Method: PREINCUBATION
[2] = Test System: AMES SALMONELLA TYPHIMURIUM, Strain/Indicator: TA100, Metabolic Activation: NONE, Method: PREINCUBATION
[3] = Test System: AMES SALMONELLA TYPHIMURIUM, Strain/Indicator: TA1535, Metabolic Activation: NONE, Method: PREINCUBATION
[4] = Test System: AMES SALMONELLA TYPHIMURIUM, Strain/Indicator: TA1537, Metabolic Activation: NONE, Method: PREINCUBATION
[5] = Test System: AMES SALMONELLA TYPHIMURIUM, Strain/Indicator: TA98, Metabolic Activation: NONE, Method: STANDARD PLATE
[6] = Test System: AMES SALMONELLA TYPHIMURIUM, Strain/Indicator: TA98, Metabolic Activation: RAT, LIVER, S-9, AROCLOR 1254, Method: STANDARD PLATE
[7] = Test System: AMES SALMONELLA TYPHIMURIUM, Strain/Indicator: TA100, Metabolic Activation: NONE, Method: STANDARD PLATE
[8] = Test System: AMES SALMONELLA TYPHIMURIUM, Strain/Indicator: TA100, Metabolic Activation: RAT, LIVER, S-9, AROCLOR 1254, Method: STANDARD PLATE
[9] = Test System: AMES SALMONELLA TYPHIMURIUM, Strain/Indicator: TA1535, Metabolic Activation: NONE, Method: STANDARD PLATE
[10] = Test System: AMES SALMONELLA TYPHIMURIUM, Strain/Indicator: TA1535, Metabolic Activation: RAT, LIVER, S-9, AROCLOR 1254, Method: STANDARD PLATE
[11] = Test System: AMES SALMONELLA TYPHIMURIUM, Strain/Indicator: TA1537, Metabolic Activation: NONE, Method: STANDARD PLATE
[12] = Test System: AMES SALMONELLA TYPHIMURIUM, Strain/Indicator: TA1537, Metabolic Activation: RAT, LIVER, S-9, AROCLOR 1254, Method: STANDARD PLATE
[13] = Test System: AMES SALMONELLA TYPHIMURIUM, Strain/Indicator: TA1538, Metabolic Activation: NONE, Method: STANDARD PLATE
[14] = Test System: AMES SALMONELLA TYPHIMURIUM, Strain/Indicator: TA1538, Metabolic Activation: RAT, LIVER, S-9, AROCLOR 1254, Method: STANDARD PLATE

## CCN(Cc1cccc(S(=O)(=O)O)c1)c1ccc(C(=C2C=CC(=[N+](CC)Cc3cccc(S(=O)(=O)O)c3)C=C2)c2ccccc2S(=O)(=O)[O-])cc1
End Point: IN VIVO MICRONUCLEUS, Test System: BONE MARROW POLYCHROMATIC ERYTHROCYTES, Species: MOUSE, Strain/Sex: DDY/MALE, Route: IP
  mutagenic call: inactive; negative
Test System: AMES SALMONELLA TYPHIMURIUM, Strain/Indicator: TA98, Metabolic Activation: HAMSTER, LIVER, S-9, AROCLOR 1254, Method: STANDARD PLATE
  mutagenic call: active; positive
Test System: AMES SALMONELLA TYPHIMURIUM, Strain/Indicator: TA98, Metabolic Activation: HAMSTER, LIVER, S-9, Method: PREINCUBATION (PRIVAL METHOD)
  mutagenic call: active; positive
[1]
  mutagenic call: inactive; negative
Test System: AMES SALMONELLA TYPHIMURIUM, Strain/Indicator: TA98, Metabolic Activation: S-9, Method: PREINCUBATION
  mutagenic call: inactive; negative
Test System: AMES SALMONELLA TYPHIMURIUM, Strain/Indicator: TA100, Metabolic Activation: HAMSTER, LIVER, S-9, Method: PREINCUBATION (PRIVAL METHOD)
  mutagenic call: active; positive
[2]
  mutagenic call: inactive; negative
Test System: AMES SALMONELLA TYPHIMURIUM, Strain/Indicator: TA100, Metabolic Activation: S-9, Method: PREINCUBATION
  mutagenic call: inactive; negative
Test System: AMES SALMONELLA TYPHIMURIUM, Strain/Indicator: TA1538, Metabolic Activation: RAT, LIVER, S-9, AROCLOR 1254, HAMSTER, LIVER, S-9, AROCLOR 1254, Method: STANDARD PLATE
  mutagenic call: active; positive
Test System: MOUSE LYMPHOMA, Strain/Indicator: L5178Y (TK+/TK-), Metabolic Activation: RAT, LIVER, S-9, AROCLOR 1254, Method: SUSPENSION/PLATE
  mutagenic call: active; positive. reevaluation of results: positive
Test System: Mouse lymphoma, Strain/Indicator: L5178Y (tk+/tk-), Metabolic Activation: None, Method: Suspension/plate
  mutagenic call: inactive; negative

## O.O.O.O.O.O.O=[N+]([O-])O.O=[N+]([O-])O.[Zn]
[1]
  mutagenic call: inactive; negative
Test System: AMES SALMONELLA TYPHIMURIUM, Strain/Indicator: TA98, Metabolic Activation: RAT LIVER S-9, PHENOBARBITAL AND BETA-NAPHTHOFLAVONE, Method: PREINCUBATION
  mutagenic call: inactive; negative
[2]
  mutagenic call: inactive; negative
Test System: AMES SALMONELLA TYPHIMURIUM, Strain/Indicator: TA100, Metabolic Activation: RAT LIVER S-9, PHENOBARBITAL AND BETA-NAPHTHOFLAVONE, Method: PREINCUBATION
  mutagenic call: inactive; negative
[3]
  mutagenic call: inactive; negative
Test System: AMES SALMONELLA TYPHIMURIUM, Strain/Indicator: TA1535, Metabolic Activation: RAT LIVER S-9, PHENOBARBITAL AND BETA-NAPHTHOFLAVONE, Method: PREINCUBATION
  mutagenic call: inactive; negative
[4]
  mutagenic call: inactive; negative
Test System: AMES SALMONELLA TYPHIMURIUM, Strain/Indicator: TA1537, Metabolic Activation: RAT LIVER S-9, PHENOBARBITAL AND BETA-NAPHTHOFLAVONE, Method: PREINCUBATION
  mutagenic call: inactive; negative
Test System: AMES SALMONELLA TYPHIMURIUM, Strain/Indicator: TA1538, Metabolic Activation: NONE, Method: PREINCUBATION
  mutagenic call: inactive; negative
Test System: AMES SALMONELLA TYPHIMURIUM, Strain/Indicator: TA1538, Metabolic Activation: RAT LIVER S-9, PHENOBARBITAL AND BETA-NAPHTHOFLAVONE, Method: PREINCUBATION
  mutagenic call: inactive; negative
Test System: E.COLI, Strain/Indicator: WP2UVRA, Metabolic Activation: NONE, Method: PREINCUBATION
  mutagenic call: inactive; negative
Test System: E.COLI, Strain/Indicator: WP2UVRA, Metabolic Activation: RAT LIVER S-9, PHENOBARBITAL AND BETA-NAPHTHOFLAVONE, Method: PREINCUBATION
  mutagenic call: inactive; negative

## OC(O)C(Cl)(Cl)Cl
End Point: IN VITRO MICRONUCLEUS, Test System: HAMSTER V79 CELLS, Metabolic Activation: NONE
  mutagenic call: active; positive
End Point: IN VIVO MICRONUCLEUS, Test System: BLOOD LYMPHOCYTES, Species: HUMAN, Strain/Sex: INFANTS/MALE, FEMALE, Route: ORAL
  mutagenic call: active; positive
Test System: AMES SALMONELLA TYPHIMURIUM, Strain/Indicator: TA98, Metabolic Activation: HAMSTER LIVER S-9 (10%), AROCLOR 1254, Method: PREINCUBATION
  mutagenic call: inactive; negative
[1]
  mutagenic call: inactive; negative
[5]
  mutagenic call: inactive; negative
Test System: AMES SALMONELLA TYPHIMURIUM, Strain/Indicator: TA98, Metabolic Activation: RAT LIVER S-9 (10%), AROCLOR 1254, Method: PREINCUBATION
  mutagenic call: inactive; negative
[6]
  mutagenic call: inactive; negative
Test System: AMES SALMONELLA TYPHIMURIUM, Strain/Indicator: TA98, Metabolic Activation: RAT, LIVER, S-9, PHENOBARBITAL AND 5,6-BENZOFLAVONE, Method: PREINCUBATION
  mutagenic call: inactive; negative
Test System: AMES SALMONELLA TYPHIMURIUM, Strain/Indicator: TA100, Metabolic Activation: HAMSTER LIVER S-9 (10%), AROCLOR 1254, Method: PREINCUBATION
  mutagenic call: active; positive
Test System: AMES SALMONELLA TYPHIMURIUM, Strain/Indicator: TA100, Metabolic Activation: NONE, Method: FLUCTUATION TEST
  mutagenic call: inactive; negative
[7]
  mutagenic call: inactive; negative
Test System: AMES SALMONELLA TYPHIMURIUM, Strain/Indicator: TA100, Metabolic Activation: RAT LIVER S-9 (10%), AROCLOR 1254, Method: PREINCUBATION
  mutagenic call: active; positive
Test System: AMES SALMONELLA TYPHIMURIUM, Strain/Indicator: TA100, Metabolic Activation: RAT, LIVER, S-9, AROCLOR 1254, Method: FLUCTUATION TEST
  mutagenic call: active; positive
[8]
  mutagenic call: inactive; negative
Test System: AMES SALMONELLA TYPHIMURIUM, Strain/Indicator: TA100, Metabolic Activation: RAT, LIVER, S-9, PHENOBARBITAL AND 5,6-BENZOFLAVONE, Method: PREINCUBATION
  mutagenic call: inactive; negative
Test System: AMES SALMONELLA TYPHIMURIUM, Strain/Indicator: TA1535, Metabolic Activation: HAMSTER LIVER S-9 (10%), AROCLOR 1254, Method: PREINCUBATION
  mutagenic call: inactive; negative
[3]
  mutagenic call: inactive; negative
[9]
  mutagenic call: inactive; negative
Test System: AMES SALMONELLA TYPHIMURIUM, Strain/Indicator: TA1535, Metabolic Activation: RAT LIVER S-9 (10%), AROCLOR 1254, Method: PREINCUBATION
  mutagenic call: inactive; negative
[10]
  mutagenic call: inactive; negative
Test System: AMES SALMONELLA TYPHIMURIUM, Strain/Indicator: TA1537, Metabolic Activation: HAMSTER LIVER S-9 (10%), AROCLOR 1254, Method: PREINCUBATION
  mutagenic call: inactive; negative
[4]
  mutagenic call: inactive; negative
[11]
  mutagenic call: inactive; negative
Test System: AMES SALMONELLA TYPHIMURIUM, Strain/Indicator: TA1537, Metabolic Activation: RAT LIVER S-9 (10%), AROCLOR 1254, Method: PREINCUBATION
  mutagenic call: inactive; negative
[12]
  mutagenic call: inactive; negative
[13]
  mutagenic call: inactive; negative
[14]
  mutagenic call: inactive; negative
Test System: MOUSE LYMPHOMA, Strain/Indicator: L5178Y (TK+/TK- -3.7.2C), Metabolic Activation: NONE
  mutagenic call: active; positive

## O=S(=O)(O)CNc1ccc(N=Nc2cccnc2)cc1
[5]
  mutagenic call: inactive; negative
[6]
  mutagenic call: inactive; negative
[7]
  mutagenic call: inactive; negative
[8]
  mutagenic call: inactive; negative
[9]
  mutagenic call: inactive; negative
[10]
  mutagenic call: inactive; negative
[11]
  mutagenic call: inactive; negative
[12]
  mutagenic call: inactive; negative
[13]
  mutagenic call: inactive; negative
[14]
  mutagenic call: inactive; negative

## CCN(CC)CCCNc1ccc2ncn3c4ccc(O)cc4c(=O)c1c23
Test System: CHINESE HAMSTER V-79, Strain/Indicator: V-79 (HGPRT)/6-THIOGUANINE, Metabolic Activation: NONE
  mutagenic call: active; positive
